In patent publication US20260223850A1, “SUBSTITUTED PYRROLIDONE COMPOUND, PREPARATION METHOD THEREFOR, COMPOSITION AND APPLICATION THEREOF” (QINGDAO KINGAGROOT CHEMICAL COMPOUND CO., LTD., priority 2023, published 2026):

Experiments:
Assay type in all cases: in vivo
Echinochloa crusgalli = experiment: Seedling stage sealing experiment for water-seeding; settings: 120 g a.i./ha, 15 days, fresh weight control rate
Source text: (§1) The activity level criteria for plant damage (i.e., growth control rate) are as follows: • Level 9: completely dead; • Level 8: growth control rate greater than or equal to 90% and less than 100%; • Level 7: growth control rate greater than or equal to 80% and less than 90%; • Level 6: growth control rate greater than or equal to 70% and less than 80%; • Level 5: growth control rate greater than or equal to 50% and less than 70%; • Level 4: growth control rate greater than or equal to 30% and less than 50%; • Level 3: growth control rate greater than or equal to 20% and less than 30%; • Level 2: growth control rate greater than or equal to 10% and less than 20%; • Level 1: growth control rate less than 10%; • Level 0: no effect.
(§2) The above growth control rates are fresh weight control rates.
(§3) Echinochloa phyllopogon, Digitaria sanguinalis, Huaidao (rice cultivar), etc. were broadcasted on the surface of nutrition bowls filled with soil and fully covered by soil. The foregoing well-prepared nutrition bowls were then placed in a cultivation box with water filled to a suitable height to keep the soil in the nutrition bowls moist. A test compound of the present invention was individually dissolved with acetone, then diluted into solution of a certain concentration using a certain amount of water, and sprayed using a spray tower. The plants were placed on a greenhouse seedbed and cultured for 15 days, and the experimental results were then collected. The compound was applied at 120, 60, 30 and 15 g a.i./ha in triplicate, and the results were averaged.

Echinochloa phyllopogon = experiment: as above; settings: 120 g a.i./ha, 15 days, fresh weight control rate
Source text: as §1, §2, §3

Huaidao (rice cultivar) = experiment: Seedling stage sealing experiment for water-seeding (crop safety); settings: 120 g a.i./ha, seedling stage sealing, 15 days, fresh weight control rate
Source text: as §1, §2, §3

[1] = spray, seedling stage sealing for water-seeding

SMILES: CN1C[C@H](c2cccc(C(F)(F)F)c2)[C@@H](C(=O)Nc2cnn(C)c2Cl)C1=O [1′]
- Echinochloa crusgalli activity level (growth control rate) (Echinochloa crusgalli; seedling stage sealing): 9
- Echinochloa phyllopogon activity level (growth control rate) (Echinochloa phyllopogon; seedling stage sealing): 6 (Level 6: growth control rate greater than or equal to 70% and less than 80%)

SMILES: CN1C[C@H](c2cccc(Oc3ccc(F)cn3)c2)[C@@H](C(=O)Nc2cnn(C)c2Cl)C1=O [52′]
- Echinochloa crusgalli activity level (growth control rate) (Echinochloa crusgalli; seedling stage sealing): 9
- Huaidao (rice cultivar) plant damage level (Huaidao (rice cultivar)): 0

SMILES: CCn1ncc(NC(=O)[C@H]2C(=O)N(C)C[C@@H]2c2cccc(C(F)(F)F)c2)c1Cl [95′]
- Echinochloa crusgalli activity level (growth control rate) (Echinochloa crusgalli; seedling stage sealing): 9
- Echinochloa phyllopogon activity level (growth control rate) (Echinochloa phyllopogon; seedling stage sealing): 8 (Level 8: growth control rate greater than or equal to 90% and less than 100%)

SMILES: Cc1ccccc1[C@H]1CN(C)C(=O)[C@@H]1C(=O)Nc1cnn(C)c1Cl [124′]
- Echinochloa crusgalli activity level (growth control rate) (Echinochloa crusgalli; seedling stage sealing): 6 (Level 6: growth control rate greater than or equal to 70% and less than 80%)

SMILES: C=C(C)c1cccc([C@H]2CN(C)C(=O)[C@@H]2C(=O)Nc2cnn(C)c2Cl)c1 [150′]
- Echinochloa crusgalli activity level (growth control rate) (Echinochloa crusgalli; seedling stage sealing): 6 (Level 6: growth control rate greater than or equal to 70% and less than 80%)
- Huaidao (rice cultivar) plant damage level (Huaidao (rice cultivar)): 0

SMILES: CN1C[C@H](c2cccc(C(F)(F)F)c2)[C@@H](C(=O)Nc2cnn(C)c2N)C1=O [198′]
- Echinochloa crusgalli activity level (growth control rate) (Echinochloa crusgalli; seedling stage sealing): 5 (Level 5: growth control rate greater than or equal to 50% and less than 70%)

SMILES: CO/N=C/c1cccc([C@H]2CN(C)C(=O)[C@@H]2C(=O)Nc2cnn(C)c2Cl)c1 [232′]
- Echinochloa crusgalli activity level (growth control rate) (Echinochloa crusgalli; seedling stage sealing): 6 (Level 6: growth control rate greater than or equal to 70% and less than 80%)

SMILES: CC(C)c1ccc([C@H]2CN(C)C(=O)[C@@H]2C(=O)Nc2cnn(C)c2Cl)cc1 [245′]
- Echinochloa phyllopogon activity level (growth control rate) (Echinochloa phyllopogon; seedling stage sealing): 5 (Level 5: growth control rate greater than or equal to 50% and less than 70%)

SMILES: COCc1ccc([C@H]2CN(C)C(=O)[C@@H]2C(=O)Nc2cnn(C)c2Cl)cc1 [253′]
- Echinochloa crusgalli activity level (growth control rate) (Echinochloa crusgalli; seedling stage sealing): 6 (Level 6: growth control rate greater than or equal to 70% and less than 80%)

SMILES: Cc1cc(C)cc([C@H]2CN(C)C(=O)[C@@H]2C(=O)Nc2cnn(C(C)(C)C)c2Cl)c1 [267′]
- Echinochloa crusgalli activity level (growth control rate) (Echinochloa crusgalli; seedling stage sealing): 6 (Level 6: growth control rate greater than or equal to 70% and less than 80%)
- Huaidao (rice cultivar) plant damage level (Huaidao (rice cultivar)): 0

SMILES: Cc1cc(C)cc([C@H]2CN(C)C(=O)[C@@H]2C(=O)Nc2cnn(C)c2)c1 [274′]
- Echinochloa crusgalli activity level (growth control rate) (Echinochloa crusgalli; seedling stage sealing): 7 (Level 7: growth control rate greater than or equal to 80% and less than 90%)
- Huaidao (rice cultivar) plant damage level (Huaidao (rice cultivar)): 0

SMILES: Cc1cc(C)cc([C@H]2CN(C)C(=O)[C@@H]2C(=O)Nc2cnn(C(C)C)c2C2CC2)c1 [278′]
- Echinochloa crusgalli activity level (growth control rate) (Echinochloa crusgalli; seedling stage sealing): 6 (Level 6: growth control rate greater than or equal to 70% and less than 80%)
- Huaidao (rice cultivar) plant damage level (Huaidao (rice cultivar)): 0

SMILES: Cc1cc(C)cc([C@H]2CN(C)C(=O)[C@@H]2C(=O)Nc2cnn(C)c2C2=CCCC2)c1 [280′]
- Echinochloa crusgalli activity level (growth control rate) (Echinochloa crusgalli; seedling stage sealing): 6 (Level 6: growth control rate greater than or equal to 70% and less than 80%)
- Huaidao (rice cultivar) plant damage level (Huaidao (rice cultivar)): 0

SMILES: CN1C[C@H](c2ccc(C(F)(F)F)c(F)c2Cl)[C@@H](C(=O)Nc2cnn(C)c2Cl)C1=O [329′]
- Echinochloa crusgalli activity level (growth control rate) (Echinochloa crusgalli; seedling stage sealing): 7 (Level 7: growth control rate greater than or equal to 80% and less than 90%)
- Echinochloa phyllopogon activity level (growth control rate) (Echinochloa phyllopogon; seedling stage sealing): 6 (Level 6: growth control rate greater than or equal to 70% and less than 80%)

SMILES: Cc1ccc([C@H]2CN(C)C(=O)[C@@H]2C(=O)Nc2cnn(C)c2Cl)s1 [335′]
- Echinochloa crusgalli activity level (growth control rate) (Echinochloa crusgalli; seedling stage sealing): 7 (Level 7: growth control rate greater than or equal to 80% and less than 90%)

SMILES: CN1C[C@H](c2cccc(Oc3ccccn3)c2)[C@@H](C(=O)Nc2cnn(C)c2Cl)C1=O [360′]
- Echinochloa crusgalli activity level (growth control rate) (Echinochloa crusgalli; seedling stage sealing): 7 (Level 7: growth control rate greater than or equal to 80% and less than 90%)

SMILES: CSc1c(NC(=O)[C@H]2C(=O)N(C)C[C@@H]2c2cccc(C)c2)cnn1C [393′]
- Echinochloa crusgalli activity level (growth control rate) (Echinochloa crusgalli; seedling stage sealing): 9
- Echinochloa phyllopogon activity level (growth control rate) (Echinochloa phyllopogon; seedling stage sealing): 9

SMILES: Cc1cccc([C@H]2CN(C)C(=O)[C@@H]2C(=O)Nc2cnn(C(F)F)c2C2CC2)c1 [395′]
- Echinochloa crusgalli activity level (growth control rate) (Echinochloa crusgalli; seedling stage sealing): 9
- Echinochloa phyllopogon activity level (growth control rate) (Echinochloa phyllopogon; seedling stage sealing): 9

SMILES: CCc1c(NC(=O)[C@H]2C(=O)N(C)C[C@@H]2c2cccc(C(F)(F)F)c2)cnn1C(F)F [403′]
- Echinochloa crusgalli activity level (growth control rate) (Echinochloa crusgalli; seedling stage sealing): 9
- Echinochloa phyllopogon activity level (growth control rate) (Echinochloa phyllopogon; seedling stage sealing): 9

SMILES: CN1C[C@H](c2cccc(C(F)(F)F)c2)[C@@H](C(=O)Nc2cnn(C)c2C(F)(F)F)C1=O [404′]
- Echinochloa crusgalli activity level (growth control rate) (Echinochloa crusgalli; seedling stage sealing): 9
- Echinochloa phyllopogon activity level (growth control rate) (Echinochloa phyllopogon; seedling stage sealing): 9

SMILES: CN1C[C@H](c2cccc(OC(F)(F)F)c2)[C@@H](C(=O)Nc2cnn(C(F)F)c2Cl)C1=O [414′]
- Echinochloa crusgalli activity level (growth control rate) (Echinochloa crusgalli; seedling stage sealing): 9
- Echinochloa phyllopogon activity level (growth control rate) (Echinochloa phyllopogon; seedling stage sealing): 9

SMILES: Cc1ccc([C@H]2CN(C)C(=O)[C@@H]2C(=O)Nc2cnn(C)c2C)cc1 [415′]
- Echinochloa crusgalli activity level (growth control rate) (Echinochloa crusgalli; seedling stage sealing): 9
- Echinochloa phyllopogon activity level (growth control rate) (Echinochloa phyllopogon; seedling stage sealing): 9

SMILES: Cc1cc(C)cc([C@H]2CN(C)C(=O)[C@@H]2C(=O)Nc2cnn(C(F)F)c2C2CC2)c1 [429′]
- Echinochloa crusgalli activity level (growth control rate) (Echinochloa crusgalli; seedling stage sealing): 9
- Echinochloa phyllopogon activity level (growth control rate) (Echinochloa phyllopogon; seedling stage sealing): 9

SMILES: CSc1c(NC(=O)[C@H]2C(=O)N(C)C[C@@H]2c2cc(C)cc(C)c2)cnn1C [431′]
- Echinochloa crusgalli activity level (growth control rate) (Echinochloa crusgalli; seedling stage sealing): 9
- Echinochloa phyllopogon activity level (growth control rate) (Echinochloa phyllopogon; seedling stage sealing): 9

SMILES: Cc1cc(C)cc([C@H]2CN(C)C(=O)[C@@H]2C(=O)Nc2cnn(C)c2C#N)c1 [434′]
- Echinochloa crusgalli activity level (growth control rate) (Echinochloa crusgalli; seedling stage sealing): 9
- Echinochloa phyllopogon activity level (growth control rate) (Echinochloa phyllopogon; seedling stage sealing): 9

SMILES: Cc1ccc([C@H]2CN(C)C(=O)[C@@H]2C(=O)Nc2cnn(C(F)F)c2Cl)cc1F [444′]
- Echinochloa crusgalli activity level (growth control rate) (Echinochloa crusgalli; [1]): 9
- Echinochloa phyllopogon activity level (growth control rate) (Echinochloa phyllopogon; [1]): 9

SMILES: Cc1cc(C)cc([C@H]2CN(C)C(=S)[C@@H]2C(=S)Nc2cnn(C)c2Cl)c1 [451′]
- Echinochloa crusgalli activity level (growth control rate) (Echinochloa crusgalli; [1]): 8 (Level 8: growth control rate greater than or equal to 90% and less than 100%)
- Echinochloa phyllopogon activity level (growth control rate) (Echinochloa phyllopogon; [1]): 7 (Level 7: growth control rate greater than or equal to 80% and less than 90%)

SMILES: CCc1c(NC(=O)[C@H]2C(=O)N(C)C[C@@H]2c2cccc(C)c2)cnn1C(F)F [466′]
- Echinochloa crusgalli activity level (growth control rate) (Echinochloa crusgalli; [1]): 9
- Echinochloa phyllopogon activity level (growth control rate) (Echinochloa phyllopogon; [1]): 9

SMILES: CSc1c(NC(=O)[C@H]2C(=O)N(C)C[C@@H]2c2cccc(C(F)(F)F)c2)cnn1C [479′]
- Echinochloa crusgalli activity level (growth control rate) (Echinochloa crusgalli; [1]): 9
- Echinochloa phyllopogon activity level (growth control rate) (Echinochloa phyllopogon; [1]): 9

SMILES: Cc1cc([C@H]2CN(C)C(=O)[C@@H]2C(=O)Nc2cnn(C(F)F)c2Cl)cc(C)c1C [515′]
- Echinochloa crusgalli activity level (growth control rate) (Echinochloa crusgalli; [1]): 9
- Echinochloa phyllopogon activity level (growth control rate) (Echinochloa phyllopogon; [1]): 9

SMILES: C=C(C)c1ccc(C2CN(C)C(=O)C2C(=O)Nc2cnn(C)c2Cl)cc1 (stereo not drawn) [Compound 252]
- Echinochloa crusgalli activity level (growth control rate) (Echinochloa crusgalli; seedling stage sealing): 7 (Level 7: growth control rate greater than or equal to 80% and less than 90%)
- Echinochloa phyllopogon activity level (growth control rate) (Echinochloa phyllopogon; seedling stage sealing): 9

SMILES: CN1CC(c2ccc(OC(F)(F)F)cc2)C(C(=O)Nc2cnn(C)c2Cl)C1=O (stereo not drawn) [Compound 254]
- Echinochloa crusgalli activity level (growth control rate) (Echinochloa crusgalli; seedling stage sealing): 5 (Level 5: growth control rate greater than or equal to 50% and less than 70%)
- Echinochloa phyllopogon activity level (growth control rate) (Echinochloa phyllopogon; seedling stage sealing): 5 (Level 5: growth control rate greater than or equal to 50% and less than 70%)

SMILES: CN1CC(c2ccc(-c3cccc(C(F)(F)F)c3)cc2)C(C(=O)Nc2cnn(C)c2Cl)C1=O (stereo not drawn) [Compound 261]
- Echinochloa crusgalli activity level (growth control rate) (Echinochloa crusgalli; seedling stage sealing): 6 (Level 6: growth control rate greater than or equal to 70% and less than 80%)
- Echinochloa phyllopogon activity level (growth control rate) (Echinochloa phyllopogon; seedling stage sealing): 5 (Level 5: growth control rate greater than or equal to 50% and less than 70%)

SMILES: COc1cc(OC)cc(C2CN(C)C(=O)C2C(=O)Nc2cnn(C)c2Cl)c1 (stereo not drawn) [Compound 302]
- Echinochloa crusgalli activity level (growth control rate) (Echinochloa crusgalli; seedling stage sealing): 6 (Level 6: growth control rate greater than or equal to 70% and less than 80%)
- Echinochloa phyllopogon activity level (growth control rate) (Echinochloa phyllopogon; seedling stage sealing): 5 (Level 5: growth control rate greater than or equal to 50% and less than 70%)

SMILES: CSc1c(C(F)(F)F)ccc(C2CN(C)C(=O)C2C(=O)Nc2cnn(C)c2Cl)c1Cl (stereo not drawn) [Compound 330]
- Echinochloa crusgalli activity level (growth control rate) (Echinochloa crusgalli; seedling stage sealing): 6 (Level 6: growth control rate greater than or equal to 70% and less than 80%)
- Echinochloa phyllopogon activity level (growth control rate) (Echinochloa phyllopogon; seedling stage sealing): 5 (Level 5: growth control rate greater than or equal to 50% and less than 70%)

SMILES: CN1CC(c2cc(F)cc(F)c2F)C(C(=O)Nc2cnn(C)c2Cl)C1=O (stereo not drawn) [Compound 332]
- Echinochloa crusgalli activity level (growth control rate) (Echinochloa crusgalli; seedling stage sealing): 5 (Level 5: growth control rate greater than or equal to 50% and less than 70%)

SMILES: CN1CC(c2ccc3occc3c2)C(C(=O)Nc2cnn(C)c2Cl)C1=O (stereo not drawn) [Compound 355]
- Echinochloa crusgalli activity level (growth control rate) (Echinochloa crusgalli; seedling stage sealing): 5 (Level 5: growth control rate greater than or equal to 50% and less than 70%)

SMILES: Cc1ccc(C2CN(C)C(=O)C2C(=O)Nc2cnn(C)c2C(F)(F)F)cc1C (stereo not drawn) [Compound 488]
- Echinochloa crusgalli activity level (growth control rate) (Echinochloa crusgalli; [1]): 9
- Echinochloa phyllopogon activity level (growth control rate) (Echinochloa phyllopogon; [1]): 9

SMILES: CN1CC(c2cc(F)cc(C(F)(F)F)c2)C(C(=O)Nc2cnn(C)c2C(F)(F)F)C1=O (stereo not drawn) [Compound 508]
- Echinochloa crusgalli activity level (growth control rate) (Echinochloa crusgalli; [1]): 9
- Echinochloa phyllopogon activity level (growth control rate) (Echinochloa phyllopogon; [1]): 9
